Reference: patent US20210369583A1, “COMPOSITIONS FOR PROVIDING SKIN CARE BENEFITS AND METHODS OF USE” (Danisco US Inc., priority 2018, published 2021)
Marks after values point to notes of the source that are not given here.

Tests used:
Type in all cases: cell-based
[1] = system: human living skin explant; test: TUNEL assay (UV-induced DNA damage) on human living skin explants
Description: (§1) human skin explants of an average diameter of 12 mm (±1 mm) were prepared on an abdoplasty coming from a person). The explants were kept in survival in BEM culture medium at 37° C. in a humid, 5%-CO2 atmosphere.
(§2) On day 0 (D0), day 1, day 2 and day 3 (3 hours before irradiation), the tested products were applied topically on surface of skin explants at the rate of 2 mg/cm^2, twice a day for D1 and D2 and once on DO and D3. […] The medium was half renewed (1 ml per well) on day 2.
(§3) On D3, the culture media of all the batches was replaced by HBSS solution (Hank's Balanced Saline Solution; 1 ml per explant). The batches “UV” were irradiated by UVA+ UVB using a UV simulator Vibert Lourmat RMX 3W with a dose of 18 J/cm2 of UVA (4 MED, minimal erythemal dose) and 0.3 J/cm2 of UVB (2 MED). The unirradiated batches were kept in HBSS in the dark. At the end of the irradiation the explants were put back in 2 mL of BEM medium.
(§4) After fixation for 24 hours in buffered formalin, the samples were dehydrated and impregnated in paraffin using a Leica PEARL dehydration automat. The samples were embedded using a Leica EG 1160 embedding station. 5-μm-thick sections were made using a Leica RM 2125 Minot-type microtome, and the sections were mounted on Superfrost® histological glass slides. The frozen samples were cut into 7-μm-thick sections using a Leica CM 3050 cryostat. Sections were then mounted on Superfrost® plus silanized glass slides. The microscopical observations were realized using a Leica DMLB or Olympus BX43 microscope. Pictures were digitized with a numeric DP72 Olympus camera with CellD storing software.
DNA oxidization is a type of damage that can be promoted by reactive oxygen species (ROS), generated by UV exposure. […] The staining was assessed by microscopical observation. Batches analyzed were T, TUV, P1UV, P2UV, P3UV at day 4 also referred to as TJ4, TUVJ4, P1UVJ4, P2UVJ4, P3UVJ4 (T=Control batch non treated non irradiated; TJ4=T at Day 4 (D4); TUV: control batch non treated UV irradiated; TUVJ4=[…] at Day 4; P1J4: product A 4% non irradiated at D4; P2J4: product A 2% non irradiated at D4; P3J4: product A 1% non irradiated at D4; P1UV: product A 4% UV irradiated; P1UVJ4: product A 4% UV irradiated at D4 P2UV: product A 2% UV irradiated; P2UVJ4: product A 2% UV irradiated at D4; P3UV: product A 1% UV irradiated; P3UVJ4: product A 1% UV irradiated at D4

[2] = system: living human skin explants; test: Biochemical assay of MDA (lipid peroxidation) on living human skin explants exposed to pollutants
Description: Product A (Table 11) was diluted in water to obtain the following products at concentrations: product P1=A at 4%, product P2=A at 2% and product P3=A at 1%.
59 human skin explants of an average diameter of 14 mm (±1 mm) were prepared on an abdoplasty coming from a person. The explants were kept in survival in BEM culture medium at 37° C. in a humid, 5%-CO2 atmosphere.
The tested products were topically applied on the basis of 2 μl per cm^2 and spread using a small spatula twice a day (morning and evening) on day 0, 1, 2, 3 and 4.
On D4, the explants of the batches ML and PML were placed on the 3D grid with 900 μl of HBSS and placed into the PolluBox® system.
3 mL of the solution <<ML>> (supplemented with 150 μl/ml of NaCl 0.9%) were exposed by vaporization for 1 hour and half, as shown in the figure below.
The MDA assay was realized with an enhanced method of the TBARs (Thiobarbituric Acid Reactive Species) assay. The MDA was assayed in HBSS medium by addition of TBARs solution (thiobarbituric acid, hydrochloric acid and tricholoroacetic acid) and placed in a water bath (80° C. for 15 minutes). A lot of substances (like glucose) which are not related with lipoperoxidation, react with thiobarbituric acid (ThioBarbituric Acid Reagents=TBARS), so to enhance the specificity of the assay, the MDA was extracted by a liquid/liquid extraction with butanol. The MDA in butanol was measured in spectrofluorimetry (excitation: 515 nm, emission: 550 nm) using a Tecan Infinite M200 Pro microplate reader. Using this assay, MDA contained in the culture medium BEMc on […] was measured for the 4 explants per batch. The MDA concentration was expressed in pmol of MDA/ml of the medium. Concerned batches: all batches on day 5, 4 explants per batch.
The average of the blank batch TJ5 was calculated (154.0 nmol/L). Then, for each explant of MLJ5, this average value was subtracted from […]. That corresponds to calculating the delta (increase) of MDA induced by ML for each explant compared to the average of the batch without ML, it is ΔML.
These average deltas were then compared to the average delta of MDA induction without treatment (ΔML).

[3] = system: human living skin explant; test: Immunostaining of carbonylated proteins (FTZ) on human living skin explants; conditions: UV irradiated
Description: as §1, §2, §3, §4
Protein carbonylation is a type of protein oxidation that can be promoted by reactive oxygen species (ROS), generated by UV exposure. FTZ marker assay was conducted by immunostaining in the living epidermis of human skin explant as follows: Carbonylated proteins were stained on frozen sections with the anti-carbonylated proteins probe (fluorescein-5-thiosemicarbazid-FTZ) (Lifetechnologies, Ref. F-121) diluted at 0.5 μM in MES-Na+ and incubated for 30 minutes in the dark and at room temperature. The staining was observed by epifluorescence and assessed by microscopical observations. Batches analyzed were T, TUV, P1UV, P2UV, P3UV at day 4 also referred to as TJ4, TUVJ4, P1UVJ4, P2UVJ4, P3UVJ4

[4] = system: human living skin explant; test: Cell viability of human living skin explants (UV study); conditions: day 4
Description: as §1, §2, §3, §4

O=C(O)[C@@H]1CCCN1 [Combination P5, L-Proline]
activity against UV-induced DNA damage ([1]; UV irradiated): totally inhibits the increase of DNA damage
DNA damage (TUNEL), variation vs TJ4 ([1]; non irradiated, day 4): ↔ (indicates no variation)
MDA, variation ΔPML vs ΔML ([2]; MDA induction by pollutants, day 5): −48%*
reduction of the increase of MDA ([2]; after pollutant exposure (ΔPML vs ΔML)): 48%
MDA, variation PML vs ML ([2]; after pollutants exposure, day 5): −14% #
effect on UV-induced carbonylated proteins [3]: slightly inhibits the formation of carbonylated proteins
Cell Viability, variation vs TUVJ4 ([4]; UV irradiated): ↔ (indicates no variation)
Cell Viability, variation vs TJ4 ([4]; non irradiated): ↔ (indicates no variation)
